From publication PMC11227574, “Synthesis, biological evaluation, molecular docking, and MD simulation of novel 2,4-disubstituted quinazoline derivatives as selective butyrylcholinesterase inhibitors and antioxidant agents” (Scientific Reports, 2024)

Key:
[1] = target: T1, eelAChE (acetylcholinesterase from the electric eel) (Electrophorus electricus, UniProt O42275); assay: biochemical; settings: for IC50: mean ± SD of three independent experiments; for inhibition at 50 µM: read-out: eelAChE: % inhibition
T1 construct: purchased Sigma Aldrich
T1 sequence (O42275 24-633): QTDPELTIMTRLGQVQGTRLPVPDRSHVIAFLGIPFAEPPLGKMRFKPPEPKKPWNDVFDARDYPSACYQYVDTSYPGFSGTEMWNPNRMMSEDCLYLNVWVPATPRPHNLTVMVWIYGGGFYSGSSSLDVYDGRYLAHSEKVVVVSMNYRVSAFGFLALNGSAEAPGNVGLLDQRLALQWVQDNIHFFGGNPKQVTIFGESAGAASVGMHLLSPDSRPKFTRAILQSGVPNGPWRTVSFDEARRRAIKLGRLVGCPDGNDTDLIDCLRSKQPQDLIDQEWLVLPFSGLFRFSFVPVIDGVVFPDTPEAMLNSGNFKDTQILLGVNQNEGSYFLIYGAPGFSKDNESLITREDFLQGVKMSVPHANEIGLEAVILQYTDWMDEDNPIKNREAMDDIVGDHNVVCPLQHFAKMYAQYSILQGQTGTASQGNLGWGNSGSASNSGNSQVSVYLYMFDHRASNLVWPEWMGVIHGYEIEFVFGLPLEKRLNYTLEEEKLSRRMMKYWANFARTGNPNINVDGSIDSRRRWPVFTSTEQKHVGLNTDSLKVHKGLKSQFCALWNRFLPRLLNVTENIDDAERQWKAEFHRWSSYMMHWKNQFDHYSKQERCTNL

DPPH antioxidant assay = settings: DPPH 110 µM, 30 min incubation, 517 nm; read-out: DPPH scavenging EC50
Source text: The DPPH method presents several advantages, such as low cost, ease of performing experiments, high reproducibility, applicability at room temperature, and automation possibilities. In contrast to other traditional antioxidant assays that require additional treatments of sample and reagents, such as high temperatures and/or oxygen supply, the DPPH method requires mild experimental conditions[35],[36]. These features have established it as a convenient and effective option for researchers in the evaluation of antioxidant properties. In this study, the antioxidant activities of the synthesized compounds 6a-j were assessed using the DPPH assay, and the obtained results are represented as EC50 values in Table 2. In this assay, quercetin was used as positive control to compare the antioxidant capacity of the tested compounds.
The antioxidant activity of the synthesized compounds were determined based on the DPPH method. 2,2-Diphenyl-1-picrylhydrazyl (DPPH) and quercetin were obtained from Sigma Aldrich company. In this assay, quercetin was used as the control compound. Initially, stock solutions of the tested compounds with concentration of 40 mM were prepared in dimethyl sulfoxide (DMSO) solvent, and then the necessary dilutions were made in methanol to prepare the required concentrations ranging from 25 to 400 µM. This test was conducted in 96-well plates. Each well contained 180 μL of DPPH (110 μM) and 20 μL of different concentrations of the tested compounds, which were incubated for 30 min under dark condition. Then, the absorbance changes were measured at a wavelength of 517 nm using the Synergy HTX Multi-Mode Reader-BioTek. EC50 values for the compounds whose free radical trapping percentage was more than 50% at a concentration of 400 µM were obtained using CurveExpert software. Experiments were repeated three times for each concentration and the results were reported as the mean (m) ± standard deviation (SD).

[2] = target: eqBuChE (butyrylcholinesterase from equine serum) (Equus caballus, UniProt P81908); assay: biochemical; format: biochemical; settings: for IC50: mean ± SD of three independent experiments; for inhibition at 50 µM: read-out: eqBuChE: % inhibition; for Selectivity index to BuChE (SI): IC50 for AChE/ IC50 for BuChE
Chain of eqBuChE (butyrylcholinesterase from equine serum) (P81908 whole entry): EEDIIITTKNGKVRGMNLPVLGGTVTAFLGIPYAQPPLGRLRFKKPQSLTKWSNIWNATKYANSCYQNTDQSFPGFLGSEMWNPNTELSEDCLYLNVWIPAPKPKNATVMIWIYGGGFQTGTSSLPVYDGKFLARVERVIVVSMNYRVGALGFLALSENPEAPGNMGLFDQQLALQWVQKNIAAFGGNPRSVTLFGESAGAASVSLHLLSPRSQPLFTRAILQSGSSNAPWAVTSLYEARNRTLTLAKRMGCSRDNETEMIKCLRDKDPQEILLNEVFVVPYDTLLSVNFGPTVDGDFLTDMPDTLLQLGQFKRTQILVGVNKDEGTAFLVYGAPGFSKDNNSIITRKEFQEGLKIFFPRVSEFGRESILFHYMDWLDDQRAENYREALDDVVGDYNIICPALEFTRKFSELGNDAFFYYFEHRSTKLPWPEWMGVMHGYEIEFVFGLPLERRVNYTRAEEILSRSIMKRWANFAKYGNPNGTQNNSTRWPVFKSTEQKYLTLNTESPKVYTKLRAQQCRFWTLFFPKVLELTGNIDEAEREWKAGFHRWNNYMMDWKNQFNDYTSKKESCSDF

eqBuChE = eqBuChE (Equus caballus, UniProt P81908); assay: Kinetic study of eqBuChE inhibition (Lineweaver-Burk plot); format: biochemical, equine; settings: inhibitor 0.5, 1, 5, 10, and 20 µM
Chain of eqBuChE (P81908 whole entry): as above
Procedure: (§1) Kinetic study was performed to investigate the inhibition mechanism of eelAChE and eqBuChE using graphical analysis of the reciprocal Lineweaver–Burk plot. […] The kinetic studies were performed in the absence (control) and presence of different concentrations of compound 6h (5, 10, 20, 40, and 80 μM) for eelAChE and different concentrations of compound 6f (0.5, 1, 5, 10, and 20 μM) for eqBuChE. The control wells contained no concentration of 6h and 6f as inhibitors.
(§2) The initial velocity (V) of the substrates hydrolysis was measured at different concentrations of acetylthiocholine iodide (ATCI) or butyrylthiocholine iodide (BTCI) (1.7–20 mM), in the absence (control) and presence of different concentrations of the compound 6h (5, 10, 20, 40, and 80 μM) for AChE and different concentrations of compound 6f (0.5, 1, 5, 10, and 20 μM) for BuChE. Then, the double reciprocal plot of 1/V versus 1/S was drawn to determine the inhibition type of AChE and BuChE. Data analysis was performed using Microsoft Office Excel 2016.

eelAChE = target: T2, eelAChE (Electrophorus electricus, UniProt O42275); assay: Kinetic study of eelAChE inhibition (Lineweaver-Burk plot); format: biochemical, electric eel; settings: inhibitor 5, 10, 20, 40, and 80 µM
T2 construct: purchased Sigma Aldrich
T2 sequence (O42275 24-633): as the sequence (O42275 24-633) above
Procedure: as §1, §2

Row | Structure (SMILES) | IC50 [1] [µM] | inhibition at 50 µM [1] [%] | EC50 (DPPH antioxidant assay) [µM] | IC50 [2] [µM] | inhibition at 50 µM [2] [%] | Inhibition type of eqBuChE (eqBuChE) | eqBuChE inhibitory activity, times more active than donepezil [2] [times] | Selectivity index to BuChE (SI) [2] | Inhibition type of eelAChE (eelAChE)
1 | Brc1ccccc1Nc1nc(Nc2ccccc2Br)c2ccccc2n1 [Compound 6a, N^2, N^4-bis(2-bromophenyl) quinazoline-2,4-diamine] | > 50 | 12.4 ± 2.74 | > 400 | > 50 | 30.6 ± 2.15 |  |  |  | 
2 | Oc1ccccc1Nc1nc(Nc2ccccc2O)c2ccccc2n1 [Compound 6b, 2,2′-(quinazoline-2,4-diylbis(azanediyl))diphenol] | > 50 | 8.7 ± 1.15 | 26.1 | 37.2 | 52.3 ± 2.17 |  |  |  | 
3 | Nc1ccccc1Nc1nc(Nc2ccccc2N)c2ccccc2n1 [Compound 6c, N^1, N^1′-(quinazoline-2,4-diyl)bis(benzene-1,2-diamine)] | > 50 | 6.15 ± 3.15 | 28.4 | 26.9 | 64.1 ± 2.32 |  |  |  | 
4 | Brc1cccc(Nc2nc(Nc3cccc(Br)c3)c3ccccc3n2)c1 [Compound 6d, N^2,N^4-bis(3-bromophenyl)quinazoline-2,4-diamine] | > 50 | 23.5 ± 1.03 | > 400 | 41.7 | 56.1 ± 4.17 |  |  |  | 
5 | FC(F)(F)c1cccc(Nc2nc(Nc3cccc(C(F)(F)F)c3)c3ccccc3n2)c1 [Compound 6e, N^2, N^4-bis(3-(trifluoromethyl)phenyl)quinazoline-2,4-diamine] | > 50 | 16.5 ± 3.05 | > 400 | 43.5 | 58.8 ± 1.37 |  |  |  | 
6 | Cc1ccc(Nc2nc(Nc3ccc(C)cc3)c3ccccc3n2)cc1 [Compound 6f, N^2, N^4-di-p-tolylquinazoline-2,4-diamine] | > 50 | 40.3 ± 3.55 | > 400 | 0.52 | 96.7 ± 2.57 | mixed-type inhibition | 20 | > 96 | 
7 | COc1ccc(Nc2nc(Nc3ccc(OC)cc3)c3ccccc3n2)cc1 [Compound 6g, N^2, N^4-bis(4-methoxyphenyl)quinazoline-2,4-diamine] | > 50 | 11 ± 4.64 | > 400 | 48.3 | 51.5 ± 3.25 |  |  |  | 
8 | COc1ccc(Nc2nc(Nc3ccc(OC)cc3OC)c3ccccc3n2)c(OC)c1 [Compound 6h, N^2, N^4-bis(2,4-dimethoxyphenyl)quinazoline-2,4-diamine] | 47.6 | 52.4 ± 2.33 | > 400 | 6.74 | 87.5 ± 3.08 |  |  | 7.1 | mixed-type inhibition
9 | COc1ccc(Cl)cc1Nc1nc(Nc2cc(Cl)ccc2OC)c2ccccc2n1 [Compound 6i, N^2, N^4-bis(5-chloro-2-methoxyphenyl)quinazoline-2,4-diamine] | > 50 | 13.7 ± 1.94 | > 400 | > 50 | 26.6 ± 3.19 |  |  |  | 
10 | Cc1ccc(O)c(Nc2nc(Nc3cc(C)ccc3O)c3ccccc3n2)c1 [Compound 6j, 2'-(quinazoline-2,4-diylbis(azanediyl))bis(4-methylphenol)] | > 50 | 45.2 ± 2.91 | 23.2 | 3.65 | 91.6 ± 3.26 |  |  | > 13.6 | 
11 | O=c1c(O)c(-c2ccc(O)c(O)c2)oc2cc(O)cc(O)c12 [Quercetin, quercetin, reference compound] |  |  | 8.9 |  |  |  |  |  | 
